Test results as given in patent publication US11612611B2, “Composition and method for treating muscle cramps containing choline alfoscerate as active ingredient” (NANOSTEM CO., LTD., priority 2017, dated 2023).

Key:
[1] = test system: patients with muscle cramps; test: Pain intensity (11-point PI-NRS) in patients with muscle cramps, one-month test; assay type: in vivo, human
Procedure: Patients who experience muscle cramps when stabilized for 3 months without taking exercise were selected as subjects.
The “trigger point injection group (control group)” patients were injected with 5 mL of 0.5% lidocaine at the trigger points (4-5 points), once a week.
(§1) The “choline alfoscerate intravenous administration group (Example 1)” patients were intravenously injected slowly with choline alfoscerate (1 g/4 mL) mixed in 100 mL of physiological saline, twice a week.
(§2) The “choline alfoscerate oral administration group (Example 2)” patients were […] with choline alfoscerate (400 mg/capsule), 3 times a day.
The test period was one month. […] The pain intensity was evaluated according to the 11-point pain intensity numerical rating scale (PI-NRS), where 0=no pain, weakest pain=1 and most severe pain=10. 2-point reduction in the pain intensity was considered clinically significant as reported (Farrar 2001, Rowbotham 2001, Hawker 2011). The pain intensity was measured on the first visit and was compared with the pain intensity 2 weeks (T1) and 4 weeks (T2) after the first drug administration.

[2] = test system: patients with muscle cramps; test: Frequency of muscle cramps for a week in patients with muscle cramps, one-month test; details: for Frequency of muscle cramps: per week
[3] = test system: patients with nocturnal calf cramps; details: 1-2 mL of 0.25% lidocaine at MTrPs of gastrocnemius muscle; cited from earlier work
[4] = test system: patients with muscle cramps; test: Side effects after the treatment in patients with muscle cramps; assay type: in vivo, human
Procedure: as §1, §2
Because choline alfoscerate has no effect on the kidney and liver, it is thought that it can be used for people with kidney or liver problems as a therapeutic agent for muscle cramps.

[5] = reported since 1969; cited from earlier work
[6] = trigger point injection (0.5% lidocaine), before drug administration
[7] = trigger point injection, 5 mL 0.5% lidocaine once a week, T1 (first 2 weeks)
[8] = trigger point injection, 5 mL 0.5% lidocaine once a week, T2 (second 2 weeks)
[9] = trigger point injection, 5 mL 0.5% lidocaine once a week, before drug administration (baseline)
[10] = Example 1, intravenous 1 g twice a week, T1 (first 2 weeks)
[11] = Example 1, intravenous 1 g twice a week, T2 (second 2 weeks)
[12] = Example 1, intravenous 1 g twice a week, before drug administration (baseline)
[13] = Example 2, oral 400 mg capsule 3 times a day, T1 (first 2 weeks)
[14] = Example 2, oral 400 mg capsule 3 times a day, T2 (second 2 weeks)
[15] = Example 2, oral 400 mg capsule 3 times a day, before drug administration (baseline)
[16] = intravenous administration group (Example 1), T1
[17] = intravenous administration group (Example 1), T2
[18] = intravenous administration group (Example 1), before drug administration
[19] = oral administration group (Example 2), T1
[20] = oral administration group (Example 2), T2
[21] = oral administration group (Example 2), before drug administration

Work on `CCN(CC)CC(=O)Nc1c(C)cccc1C` [Control group (TPI), lidocaine] yielded a pain intensity ([1]; trigger point injection (0.5% lidocaine), 2 weeks after first drug administration (T1)) of 3.74 points, a pain intensity ([1]; trigger point injection (0.5% lidocaine), 4 weeks after first drug administration (T2)) of 2.11 points and a pain intensity [1, 6] of 5.34 points. The pain intensity [1, 7] was 3.74 ± 0.91, the pain intensity [1, 8] was 2.11 ± 0.76 and the pain intensity [1, 9] was 5.34 ± 0.87. For the same compound, the “frequency of muscle cramps for a week” value ([2]; trigger point injection (0.5% lidocaine), T1) was 2.00 times, the “frequency of muscle cramps for a week” value ([2]; trigger point injection (0.5% lidocaine), T2) was 1.43 times and the “frequency of muscle cramps for a week” value [2, 6] was 2.84 times. For the same compound, the “Frequency of muscle cramps” value [2, 7] was 2.00 ± 0.68, the “Frequency of muscle cramps” value [2, 8] was 1.43 ± 0.53 and the “Frequency of muscle cramps” value [2, 9] was 2.84 ± 0.99. The “frequency of cramps for a week as compared to before the administration” value [3] was “decreased significantly”, the “insomnia severity index (ISI) as compared to before the administration” value [3] was “decreased significantly” and the “intensity of pain as compared to before the administration” value [3] was “decreased significantly”.

Compound `C[N+](C)(C)CCOP(=O)([O-])OC[C@H](O)CO` [choline alfoscerate] has a pain intensity [1, 10] of 2.56 ± 1.49, a pain intensity [1, 11] of 1.32 ± 0.91 and a pain intensity [1, 12] of 6.50 ± 1.26. For the same compound, the pain intensity [1, 13] was 3.94 ± 1.17, the pain intensity [1, 14] was 1.88 ± 0.92 and the pain intensity [1, 15] was 6.31 ± +0.94. The “pain intensity as compared to trigger point injection group (control group)” value ([1]; intravenous (Example 1), at both T1 and T2, P < 0.05) was “significant decrease”, the pain intensity [1, 16] was 2.56 points and the pain intensity [1, 17] was 1.32 points. For the same compound, the pain intensity [1, 18] was 6.50 points, the pain intensity [1, 19] was 3.94 points and the pain intensity [1, 20] was 1.88 points. For the same compound, the pain intensity [1, 21] was 6.31 points, the “Frequency of muscle cramps” value [2, 10] was 1.56 ± 1.34 and the “Frequency of muscle cramps” value [2, 11] was 0.88 ± 1.19. For the same compound, the “Frequency of muscle cramps” value [2, 12] was 4.91 ± 2.40, the “Frequency of muscle cramps” value [2, 13] was 2.67 ± 1.07 and the “Frequency of muscle cramps” value [2, 14] was 1.05 ± 0.70. The “Frequency of muscle cramps” value [2, 15] was 5.25 ± 1.47, the “frequency of muscle cramps for a week as compared to control group” value ([2]; intravenous (Example 1), T1, P < 0.05) was “significant decrease” and the “frequency of muscle cramps as compared to control group” value ([2]; intravenous (Example 1), T2) was “significant decrease”. For the same compound, the “frequency of muscle cramps for a week” value [2, 16] was 1.56 times, the “frequency of muscle cramps for a week” value [2, 17] was 0.88 time and the “frequency of muscle cramps for a week” value [2, 18] was 4.91 times. For the same compound, the “frequency of muscle cramps for a week as compared to control group” value ([2]; oral (Example 2), T1, higher baseline frequency in this group) was “significant increase”, the “frequency of muscle cramps as compared to control group” value ([2]; oral (Example 2), T2) was “significant decrease” and the “frequency of muscle cramps for a week” value [2, 19] was 2.67 times. The “frequency of muscle cramps for a week” value [2, 20] was 1.05 times, the “frequency of muscle cramps for a week” value [2, 21] was 5.25 times and the “side effect after the treatment” value ([4]; intravenous administration group (Example 1)) was “no side effect”. The “side effect after the treatment” value ([4]; oral administration group (Example 2)) was “no side effect”.

For `C=C[C@H]1C[N@@]2CC[C@H]1C[C@H]2[C@H](O)c1ccnc2ccc(OC)cc12` [quinine], the death reported [5] is listed as 93 cases and the “severe side effects reported” value [5] is listed as 665 cases.
